Marks after values point to notes of the source that are not given here.
Experiments:
M. avium [1] = assay: Intracellular growth of M. avium in mouse bone marrow-derived macrophages (mBMDM) in vitro, CFU assay; assay type: cell-based, Mycobacterium avium; details: for % of CFU: 10 μg/ml 72 h prior to infection, medium alone = 100%
Procedure: A previously studied M. avium strain 13 (Hayashi, et al. (1999) Infect. Immun. 67:3558-3565; Meylan, et al. (1990) Infect. Immun. 58:2564-2568), isolated from an AIDS patient at UCSD, San Diego, Calif., was used in all experiments. The organism was cultured on Middlebrook 7H11 agar (Difco Laboratories, Detroit, Mich.) with OADC enrichment at 37° C. in the presence of 5% CO2 for two weeks. Transparent colonies were selectively picked and further cultured on Middlebrook 7H11 plates for two more weeks. The resulting colonies, which were predominantly transparent (>90%), were then collected and washed two times with phosphate-buffered saline (PBS). The bacteria were finally resuspended in Middlebrook 7H9 broth (Difco Laboratories) and the OD600 of the suspension was adjusted to 0.15-0.2. The suspension was aliquoted and stored at −70° C. until use. The number of organisms/ml of this suspension was determined by the colony forming unit (CFU) assay.
The number of CFU in a given sample was determined by colony counting as described previously (Ogata, et al. (1992) Infect. Immun. 60:4720-4725). Serial 10-fold dilutions of total cell lysates or tissue homogenates were performed in PBS. 10 μl of each dilution were plated on Middlebrook 7H11 plates supplemented with OADC enrichment. The plates were incubated up to 14 days at 37° C. The number of colonies was counted every alternate day from day 10 onwards until no new colonies appeared. This yielded the number of CFU/10 μl. The number of CFU in each well was then calculated.
Preparation of Murine Macrophages. Mouse bone marrow-derived macrophages (mBMDM) were prepared from mouse bone marrow using L-cell conditioned media, as described in Martin-Orozco, et al. (1999) […] 11:1111-1118.
Alternatively, 5×10^4 mBMDM or hMDM was treated with ISS for 3 days before infection. Macrophages treated with M-ODN or with media alone served as controls. After 3 days, the cells were infected for 2 hrs with M. avium at a macrophage:bacteria ratio of 2:1 for mBMDM or of 1:10 for hMDM, and subsequently cultured in fresh media without antibiotics. To examine attachment and/or invasion of M. avium, the macrophages were lysed immediately after washing, and the number of bacteria were enumerated by the CFU assay. Intracellular growth of M. avium was determined on days 1, 3, and 7 after infection. To account for all the mycobacteria in each group, corresponding lysates were combined and then the number of CFU was determined. To examine the efficacy of anti-mycobacterial treatments, CFU recovered from cells treated with medium alone were considered as 100% growth.
To determine whether treatment with ISS after infection alters M. avium growth, adherent cells were first infected with M. avium for 2 hrs and then these cells were cultured with fresh media containing ISS. Infected cells treated with M-ODN or medium alone served as controls. At day 7, intracellular growth of M. avium was assessed by CFU assay.

M. avium [2] = assay: Growth of M. avium in vivo in C57B1/6 mice, CFU per organ; design: species or system Mycobacterium avium; details: for viable bacteria in the lungs: week 2
IFN-γ = assay: Serum IFN-γ by ELISA in mice; assay type: in vivo
Procedure: (§1) Serum obtained from M. avium-infected mice that received ISS or PBS was assayed for IFN-γ and IL-12 by ELISA using mouse IFN-γ and IL-12 (p70) ELISA kits (Endogen, Inc. Woburn, […]), respectively, and following the manufacturer's instructions.

IL-12 (p70) = assay: Serum IL-12 (p70) by ELISA in mice; assay type: in vivo
Procedure: as §1

[3] = system: spleen and liver of M. avium-infected mice; assay: Histologic examination of spleen and liver of M. avium-infected mice; assay type: in vivo
Procedure: Sections of the spleen and liver collected from the experimental and control M. avium-infected mice at 2, 4, and 6 weeks post-infection, were fixed overnight in 10% buffered formalin at room temperature, and embedded in paraffin. The paraffin-embedded tissue was further sectioned (5 μm thickness), stained with hematoxylin-eosin and observed under an Olympus microscope. At least three sections from each organ of each of the experimental and control mice were evaluated and representative fields were viewed at 100×.

[4] = system: IFN-γ producing CD4+ and CD8+ T cells; assay: Intracellular IFN-γ staining and secreted IFN-γ ELISA of re-stimulated splenocytes from M. avium-infected mice; assay type: in vivo; details: ISS 50 μg/mouse; 10^7 organisms/mouse; three weeks post-infection; anti-CD3/anti-CD28 re-stimulation
Procedure: Mice were injected intradermally (i.d.) with ISS (50 μg/mouse). The control mice received M-ODN (50 μg/mouse) or PBS (50 μl/mouse). All mice were infected with 1×10^7 M. avium. Three weeks after infection, the mice were sacrificed and splenocytes from mice receiving the same treatment were pooled. Intracellular cytokine staining was performed using the Cytofix/Cytoperm kit (Pharmingen) according to the manufacturer's instructions. Briefly, the splenocytes were stimulated with anti-CD3 and anti-CD28 activating antibodies in the presence of monensin to allow intracellular IFN-γ to accumulate for 6 hrs. Next, surface CD4 and CD8 were stained for, the cells were fixed, and the plasma membranes were permeabilized, allowing for intracellular staining with anti-IFN-γ. The cells were analyzed on a FACSCalibur flow cytometer (Becton Dickenson). To study IFN-γ production, splenocytes were incubated with anti-CD3 and anti-CD28 antibodies in vitro for 24 hrs, and these supernatants were assayed for the presence of IFN-γ by sandwich ELISA (Martin-Orozco, et al. (1999) Int. Immun. 11:1111-1118).

[5] = system: indoleamine 2,3-dioxygenase (IDO); assay: IDO gene induction in vivo in mice, semi-quantitative RT-PCR; details: 50 μg i.v.; after 16 hrs
[6] = ISS 3 days before i.v. infection, 10^7 organisms/mouse, four weeks after infection, vs M-ODN and PBS mice
[7] = other experiments, data not shown

## 5′-TGACTGTGAACGTTCGAGATGA-3′ (SEQ ID NO:1) [ISS]
M. avium [1]; NADPH oxidase−/−, iNOS−/−, TNF-α−/−, IL-12p40−/−, IFN-α/βR−/−, IFN-γR−/− mBMDM, ISS 3 days before infection
  inhibition of intracellular growth of M. avium in mBMDM from knockout mice: 60-85%
M. avium [1]; mBMDM from IFN-αR−/− 129S6/SvEv, day 7
  % of CFU: 10.9 ± 01.7^b %
M. avium [1]; mBMDM from IFN-γR−/− 129S6/SvEv, day 7
  % of CFU: 7.6 ± 01.3^b %
M. avium [1]; mBMDM from IL-12 p40−/− C57B1/6, day 7
  % of CFU: 26.4 ± 10.1^b %
M. avium [1]; mBMDM from INOS−/− C57B1/6, day 7
  % of CFU: 37.3 ± 4.6^b %
M. avium [1]; mBMDM from NADPH oxidase−/− (gp91 phox−/−) C57B1/6, day 7
  % of CFU: 11.4 ± 1.5^b %
M. avium [1]; mBMDM from TNF-α−/− C57B1/6, day 7
  % of CFU: 24.0 ± 6.0^b %
M. avium [1]; mBMDM from Wild type 129S6/SvEV, day 7
  % of CFU: 17.0 ± 4.0^b %
M. avium [1]; mBMDM from Wild type C57B1/6, day 7
  % of CFU: 18.2 ± 7.3^b %
M. avium [1]; mBMDM infected first, then treated, ISS 10 μg/ml, CLA 0.1 μg/ml, 7 days after infection, compared to medium alone
  reduction of bacterial growth in mBMDM: 68%
M. avium [1]; treated 72 hrs before infection, day 7
  inhibition of intracellular growth of M. avium in mBMDM: 80%
M. avium [1]; treated for 7 days starting two hours after infection, vs M-ODN or medium alone
  decrease of intracellular growth of M. avium in mBMDM: 68%
M. avium [2]; C57B1/6 mice, 10^7 CFU i.v., ISS-ODN 50 μg/mouse alone one week after infection, 5 weeks after infection
  growth of M. avium in the therapeutic model: did not inhibit the growth of M. avium
M. avium [2]; ISS 100 μg/mouse i.d. 3 days before infection, 10^6 organisms/mouse, vs PBS
  viable bacteria in the lungs: significantly lower number of viable bacteria
M. avium [2]; [6]
  difference of CFU in the lungs, controls vs ISS-treated mice: 1 log
  difference of CFU in the spleen, controls vs ISS-treated mice: 2 logs
M. avium [2]; ISS i.d. 3 days before infection, 10^6 organisms/mouse, vs PBS, effects maximal at 4 weeks
  number of bacteria in the spleen: almost two logs lower number of bacteria
M. avium [2]; ISS pretreatment, 10^6 organisms/mouse, week 6, vs PBS
  CFU in the spleen: equaled that observed in the control mice
M. avium [2]; ISS pretreatment, 10^6 organisms/mouse, week 6, vs control mice
  bacterial load in the lungs: exceeded that found in the lungs of control mice
M. avium [2]; ISS pretreatment, 10^6 organisms/mouse, weeks 2, 4, 6, vs PBS
  bacterial loads in the liver: no significant difference
M. avium [2]; ISS prior to infection, 10^7 organisms/mouse, 4 weeks, vs PBS
  bacteria in the spleen: nearly two logs less bacteria
M. avium [2]; ISS prior to infection, 10^7 organisms/mouse, 6 weeks, vs control
  splenic CFU counts: similar
M. avium [2]; ISS prior to infection, 10^7 organisms/mouse, vs PBS
  viable bacteria in the lungs: significantly lower number of viable bacteria
M. avium [2]; ISS prior to infection, 10^7 organisms/mouse, weeks 2, 4, 6, vs PBS
  mycobacterial loads in the liver: no significant difference
M. avium [2]; single injection of ISS, 10^6 organisms/mouse
  persistence of the protective effect after administration: up to four weeks
IFN-γ; M. avium-infected mice (10^6 organisms/mouse), 2, 4, 6 weeks, ISS-pretreated vs PBS-pretreated
  serum IFN-γ levels: no significant differences
IFN-γ; [7]
  time for serum IFN-γ to attain basal levels post injection: ≤ 3 weeks
  time of peak serum level of IFN-γ after administration: 1 days
IL-12 (p70); M. avium-infected mice (10^6 organisms/mouse), 2, 4, 6 weeks, below ELISA detection
  serum IL-12 levels: < 5 pg/mL
IL-12 (p70); [7]
  time for serum IL-12 to attain basal levels post injection: ≤ 3 weeks
  time of peak serum level of IL-12 after administration: 1 days
[3]; vs PBS-treated infected mice
  histopathology of the livers: no significant histopathological differences
[3]; week 4, vs infected mice treated with PBS
  granulomas in the spleen: notably smaller in size and surrounded by mononuclear cells
[3]; week 6, vs PBS-treated infected mice
  granulomas in the spleens: not significantly different
[4]
  frequency of infection-specific IFN-γ positive CD4+ or CD8+ T cells: did not further increase
[5]
  IDO gene induction in vivo in the liver: not in the liver
  IDO gene induction in vivo in the lungs and spleen: observed
